According to patent US6866864B2, “Compositions and methods of use in the treatment of angiogenesis and vascular-related disorders” (priority 2000, dated 2005):

How the values were obtained:
[1] = system: human smooth muscle cell migration; assay: Human smooth muscle cell migration toward plasma from MI patients (modified Boyden chamber); format: cell-based; settings: for synergy with antioxidant on the inhibition of human smooth muscle cell migration: garlic ingredients 1 μM each plus ascorbic acid 3 μM, FIG. 5; for effect on human smooth muscle cell migration toward plasma from MI patients: antioxidants alone, 3 μM each, FIG. 3
Experimental: Graph showing the modified Boyden chamber used to examine the effect of garlic ingredients, antioxidants, and combinations on human smooth muscle cell migration toward plasma obtained from acute myocardial infarction patients (MI) during balloon angioplasty and stent coronary intervention.
The procedure is as follow: 20 μl plasma was placed in the bottom chamber (A), smooth muscle suspension 1×10^6 cells in 5 μl with or without the various garlic active ingredients, antioxidants or combinations were placed in the top chamber (B). The chamber B was fitted over chamber A, covered and placed in a CO2 (5%)/O2 (95%) incubator for 22 hours at 37° C. The filter from chamber B was taken out of the chamber and the cells on the top were scraped off using a cell scraper. The filter was placed in formaldehyde, Triton X100, washing buffer solution, stained with Rhodamine phloyden, and then a washing solution as shown in station C (front view) and D (side view). The filter was then dried and put in a fluorescence plate reader to read the degree of fluorescence.

[2] = system: tumor growth in the CAM model; assay: Chick chorioallantoic membrane tumor assay model; format: in vivo; settings: different types of tumor; by inhibiting tumor-induced angiogenesis
Experimental: In addition to the angiogenesis assays described above where the effect of the garlic sulfur containing ingredient Alliin±antioxidants were evaluated, the anti-tumor efficacy for Alliin+antioxidants were evaluated as well. Ten million tumor cells were placed on the surface of each CAM and were cultured for one week. The resulting tumors were excised and cut into 50 mg fragments. Cheresh et al., Cell 58: 945-953 (1989), Brooks et al., J. Cell Biol., 122:1351 (1993) and as described herein. These fragments were placed on additional CAMs and treated topically the following day with 0.11 mg in 25 μl of Alliin with and without anti-oxidant or saline. Forty eight hours later, CAMs were excised from the egg and the number of blood vessels entering the tumors were counted (as vessel branch points).
Data presented as mean blood vessel number per treatment group (+/− standard error of measurement). Each treatment group incorporated at least ten tumors per experiment. Representative tumors were photographed at 10× magnification. Tumors were then excised from the egg and tumor weights were determined for each tumor. Data presented as mean tumor weight per treatment group (+/− standard error of measurement). Statistical analyses were performed using Student's t-test.

HUVEC = assay: FGF2-induced endothelial cell tube formation on Matrigel; format: cell-based, human
Experimental: For the different in vitro assays human smooth muscle cells and human umbilical vein endothelial (HUVEC) cells were obtained from (Clonetics, Walkersville, Md.). Endothelial cells (EC) were grown to 80-90% confluence in Endothelial Growth Medium (EGM) containing hEGF 10 ng/ml, hydrocortisone […], gentamicin […], amphotercin-B 50 ug/ml, Blood Brain Extract 0.012 mg/ml and 2% Fetal Bovine Serum equilibrated with 95% air/5% CO2 at 37° C. HUVEC cells will be serially passed in Endothelial Growth in cell culture flasks coated with gelatin 0.2%, (Sigma, St. Louis, Mo.). Confluent cultures of endothelial cells between the 3rd and 6th passages were washes with HBSS and harvested using 0.025% trypsin/0.01% EDTA and counted by hemacytometer. […]
Microscopic Analysis of Endothetial Cell Tube Formation: […] Digital images of microtiter well sections were collected using a 3-CCD color video camera system ([…], New York, N.Y.) and analyzed with the Image-Pro Plus software (Media Cybernetics, Silver Spring, Md.). The area and major axis length of stained cells having a tubular morphology on the Matrigel surface counted from 5 images/well. Area data is expressed in units of 10^4 square microns and length data is expressed as length/area in units of mm/mm^2. […]

[3] = system: bFGF-induced angiogenesis on the CAM; assay: FGF2 (bFGF)-induced angiogenesis in the chick chorioallantoic membrane (CAM) model; format: in vivo
Experimental: In Vivo Angiogenesis: Ten-day old chick embryos were purchased from Spafas, Inc. (Preston, Conn.) and were incubated at 37° with 55% humidity generally referred to as chick chorioallantoic membrane (CAM) model. A small hole was punctured in the shell concealing the air sac with a hypodermic needle. A second hole was punctured in the shell on the broadside of the egg directly over an avascular portion of the embryonic membrane, as observed during candling. A false air sac was created beneath the second hole by the application of negative pressure to the first hole, which caused the CAM to separate form the shell. A window, approximately 1.0 cm2, was cut the in the shell over the dropped CAM with the use of a small crafts grinding wheel (Dermal, Division of Emerson Electric Company (Racine, Wis.) which allowed direct access to the underlying CAM.
Filter disks of #1 filter paper (Whatman International, United Kingdom) were soaked in 3 mg/ml cortisone acetate (Sigma, St. Louis, Mo.) in a solution of 95% ethanol and water and subsequently air dried under sterile conditions. […] Blood vessel branch points in the 5 mm filter disk area were counted at 30× magnification in a blinded fashion as a size-independent quantitative indicator of vascular sprouting in response to growth factors. As angiogenesis is characterized by the sprouting of new vessels in response to growth factors, counting blood vessel branch points is a useful quantitative means of obtaining an angiogenic index. […] Data was evaluated in terms of average number of blood vessel branch points per treatment group±standard deviation of measurement. […]
Microscopic Analysis of CAM Sections: CAM tissue directly beneath FGF2-saturated filter disk was resected from embryos treated 48 hours prior with compounds or controls. […] Digital images of CAM sections adjacent to filters were collected using a 3-CCD color video camera system (Toshiba America, New York, N.Y.) and analyzed with the Image-Pro Plus software (Media Cybernetics, Silver Spring, Md.). […]

## C=CCSSCC=C [allyl disulfide]
[1]
  synergy with antioxidant on the inhibition of human smooth muscle cell migration: synergy

## O=C1O[C@H]([C@@H](O)CO)C(O)=C1O [ascorbic acid]
[1]
  effect on human smooth muscle cell migration toward plasma from MI patients: lack of effect

## Alliin
[2]
  tumor growth in the CAM model: inhibited
HUVEC; Alliin ± antioxidants, FIG. 10, n=6
  efficacy on FGF2-induced EC tube formation: Concentration-dependent efficacy
HUVEC; HUVEC, FGF2 50 ng/ml, alliin 0-0.011 mg
  inhibition of cytokine stimulated tube formation: 90-100%
[3]; Alliin ± antioxidants, FIG. 11B, n=6
  efficacy on FGF2-induced angiogenesis in the CAM model: Dose-dependent efficacy
[3]; applied to filter disk or injected intravenously 24 h after bFGF
  blockade of bFGF-induced angiogenesis on the CAM: at least 92+/−10%
[3]; applied to the growth factor saturated filter 24 h after bFGF, CAMs excised after three days
  inhibition of growth of new blood vessels induced by bFGF (vessel branch points): 92 +/−10%
[1]
  synergy with antioxidant on the inhibition of human smooth muscle cell migration: synergy
[1]; qualitative, micrographs treated vs untreated, FIG. 4
  inhibition of smooth muscle cell migration toward plasma from MI subjects: Inhibition of smooth muscle cell migration

## ethylene diphenyl urea [EDU]
[1]
  effect on human smooth muscle cell migration toward plasma from MI patients: lack of effect
